Measurements as given in patent publication US7544703B2, “Cyclic compound having 4-pyridylalkylthio group having substituted or unsubstituted amino group introduced therein” (Santen Pharmaceutical Co., Ltd., priority 2004, dated 2009).
Counter-ions that a name gives are not always drawn.

What was measured:
[1] = system: HUVEC (normal human umbilical vein endothelial cells); assay: VEGF-induced HUVEC proliferation: cell proliferation inhibitory action test; type: cell-based; details: 72 h, 5 μL of 20 μg/mL test compound solution per well, WST-8 absorbance at 450 nm three days after VEGF addition, read-out: Cell proliferation inhibition rate (%);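 also: each well holds 100 µL cell suspension before compound addition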
Method in brief: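 HUVECs in 0.5% FBS F12K on type I collagen were pretreated 1 h with compound (20 μg/mL solution in PBS from DMSO stock, 5 μL/well), then stimulated with VEGF (400 ng/mL solution). After 3 days at 37 °C, viability was read by WST-8 A450. Inhibition % was calculated against a 1.0% DMSO control, minus cell+medium blank.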

B16 cells = assay: Tumor growth inhibitory action test using cancer models in mice (B16 cells); type: in vivo; details: C57BL/6N mouse, B16 cells intradermal; 100 mg/kg/day oral once a day, day 0 to day 10; average of 9 mice per group; read-out: Tumor tissue weight inhibition rate (%)
Procedure: A tumor growth inhibitory action test of the compounds of the present invention was performed using a tumor growth model in mice, which is one of the widely-used methods of evaluating in vivo anticancer effects of drugs.
As one of the widely-used methods of evaluating anticancer effects of drugs, a tumor growth inhibitory action test using cancer models in mice has been reported in Cancer Res., 59, 5209-5218 (1999). According to the method described in the above-mentioned document, a tumor growth inhibitory action test of the compounds of the present invention was performed, the tumor tissue weight inhibition rate was calculated, and the anticancer effect of each of the compounds of the present invention was evaluated using the obtained rate as an index.
A 1% aqueous methyl cellulose solution was added to each test compound to suspend it with a sonicator, whereby a 10 mg/mL test compound suspension was prepared.
Physiological saline was added to B16 cells, whereby a 3.3×10^7 cells/mL B16 cell suspension was prepared.
• 1) The back of each mouse (female, 6 weeks of age, C57BL/6N mouse) was depilated using a depilatory under Nembutal anesthesia. • 2) Several days after the depilation, the B16 cell suspension (300 μL) was injected intradermally into the back of the mouse under Nembutal anesthesia. • 3) From the B16 cell injection day (i.e. on day 0) to day 10, the test compound suspension (100 mg/kg/day) was orally administered once a day consecutively. • 4) Ten days after the injection of the cells, the mouse was euthanized with CO2 gas. • 5) A tumor tissue was enucleated from the mouse, and the weight of the tumor tissue was measured with an electronic balance. • 6) A test was performed in the same manner as in 1) to 5) except that the 1% aqueous methyl cellulose solution was used instead of the test compound suspension, and the result was used as a control. (Calculation of Tumor Tissue Weight Inhibition Rate)
A tumor tissue weight inhibition rate (the average of 9 mice per group), which was used as an index of anticancer effect, was calculated according to the following calculation equation. Tumor tissue weight inhibition rate (%)=100−(Mx/Mo)×100 (Calculation Equation) Mo: Tumor tissue weight of control group Mx: Tumor tissue weight of test compound solution administration group (Test Results and Discussion)

Structure (SMILES)	inhibition at 20 µg/mL (stock) [1] [%]	inhibition in vivo at 100 mg/kg/day (B16 cells) [%]
CNc1cc(CSc2ncccc2C(=O)Nc2ccc(OC(F)(F)F)cc2)ccn1 [Compound 3-8, 2-(2-Methylaminopyridin-4-ylmethylthio)-N-(4-trifluoromethoxyphenyl)pyridine-3-carboxamide monohydrochloride]	100	80
CNC(=O)Nc1cc(CSc2ncccc2C(=O)Nc2cc(C)cc(C)c2)ccn1 [Compound 9-1, N-(3,5-Dimethylphenyl)-2-[2-(N′-methylureido)pyridin-4-ylmethylthio]pyridine-3-carboxamide]	100	43
Cc1cc(C)cc(NC(=O)c2cccnc2SCc2ccnc(N)c2)c1 [Compound 3-1, 2-(2-Aminopyridin-4-ylmethylthio)-N-(3,5-dimethylphenyl)pyridine-3-carboxamide monohydrochloride]	100	70
CC(=O)Nc1cc(CSc2ncccc2C(=O)Nc2cc(C)cc(C)c2)ccn1 [Compound 4-1, 2-(2-Acetylaminopyridin-4-ylmethylthio)-N-(3,5-dimethylphenyl)pyridine-3-carboxamide]	100	75
CC(=O)Nc1cc(CSc2ncccc2C(=O)Nc2ccc(Cl)cc2)ccn1 [Compound 4-10, 2-(2-Acetylaminopyridin-4-ylmethylthio)-N-(4-chlorophenyl)pyridine-3-carboxamide]	100	75
CC(=O)OCC(=O)Nc1cc(CSc2ncccc2C(=O)Nc2cc(C)cc(C)c2)ccn1 [Compound 10-1, 2-(2-Acetoxyacetylaminopyridin-4-ylmethylthio)-N-(3,5-dimethylphenyl)pyridine-3-carboxamide]	100	54
Nc1cc(CSc2ncccc2C(=O)Nc2ccc(OC(F)(F)F)cc2)ccn1 [Compound 3-10, 2-(2-Aminopyridin-4-ylmethylthio)-N-(4-trifluoromethoxyphenyl)pyridine-3-carboxamide]	97	85
CC(=O)Nc1cc(CSc2ncccc2C(=O)Nc2ccc(OC(F)(F)F)cc2)ccn1 [Compound 4-11, 2-(2-Acetylaminopyridin-4-ylmethylthio)-N-(4-trifluoromethoxyphenyl)pyridine-3-carboxamide]	93	86
O=C(CO)Nc1cc(CSc2ncccc2C(=O)Nc2ccc(OC(F)(F)F)cc2)ccn1 [Compound 12-1, 2-(2-Hydroxyacetylaminopyridin-4-ylmethylthio)-N-(4-trifluoromethoxyphenyl)pyridine-3-carboxamide]	78	85
